# In US5891657A (priority 1994, dated 1999):
# Columns and labels:
# anti-analyte antibody [1] = conditions: magnetic-particle enzyme immunoassay
# Protocol: (§1) The sample to be tested is added, along with the enzyme conjugate, to a disposable test tube followed by the addition of paramagnetic particles with analyte-specific antibodies attached. At the end of an incubation period, a magnetic field is applied to hold the paramagnetic particles (with analyte and enzyme-conjugate bound to the antibodies on the particles, in proportion to their original concentration in the tube) in the tube and allow the unbound reagents to be decanted. After decanting, the particles are washed with Washing Solution.
# (§2) The presence of analyte is detected by adding the enzyme substrate (hydrogen peroxide) and the chromogen (3,3',5,5'-tetramethylbenzidine). The enzyme-conjugate bound to the anti-analyte antibody catalyzes the conversion of the substrate/chromogen mixture to a colored product. After an incubation period, the reaction is stopped and stabilized by the addition of acid. Since the conjugate was in competition with the unlabeled analyte for the antibody sites, the color developed is inversely proportional to the concentration of analyte in the sample.
# (§3) 200 μl of either standard, control or sample is added to each tube.
# (§4) 250 μl of conjugate is added to each tube.
# (§5) The antibody-coupled paramagnetic particles are mixed thoroughly and 500 ul of them are added to each tube (The stock solution with a concentration of 8-10 mg iron/ml was diluted 1:1000 in 150 mM Tris, 150 mM NaCl, 1 mM EDTA, 0.1% BSA with 15 ppm Proclin, pH 7.4 and 500 ul was added to each tube).
# (§6) Tubes are vortexed for 1 to 2 seconds minimizing foaming.
# (§7) Tubes are incubated for 15 min at room temperature (15°-30° C.).
# (§8) Tubes in the magnetic rack are placed over a magnetic base for two minutes.
# (§9) The tubes are decanted and gently blotted briefly in a consistent manner.
# (§10) One ml of Washing Solution is added to each tube and the tubes are allowed to remain in the separation rack for two minutes.
# (§11) Decant and gently blot all tubes briefly in a consistent manner.
# (§12) Repeat steps 8 and 9 an additional time.
# (§13) Remove the rack from the separator and add 500 μl of Color Solution to eac tube.
# (§14) Vortex for 1 to 2 seconds minimizing foaming.
# (§15) Incubate for 20 minutes at room temperature.
# (§16) Add 500 μl of Stopping Solution to each tube.
# (§17) Read results at 450 nm within 15 minutes after adding the Stopping Solution.
# (§18) Calculating the mean absorbance value for each standard.
# (§19) Calculating the % B/B0 for each standard by dividing the mean absorbance value for the standard by the mean absorbance value for the Diluent/Zero Standard In other words if the mean absorbance value for the standard is 0.5 times the mean absorbance value for the Diluent/Zero Standard then the % B/B0 is 50% and the concentration of standard used is the 50% B/B0 concentration.)
# (§20) Constructing a standard curve by plotting the % B/B0 for each standard on vertical logit (Y) axis versus the corresponding analyte concentration on a horizontal algorithmic (X) axis.
# (§21) 4. % B/B0 for controls and sample will then yield levels in ppm of analyte by interpolation using the standard curve.
# [2] = Loss of immunoreactivity on storage in open test tube (volatilization); assay type: physicochemical; conditions: conditions of Example 1; 2,4-D 10 ppm, naphthalene 0.75 ppm; FIG. 5
# Protocol: They were stored in 10 ml of distilled water at room temperature (15°-30° C.) in an open test tube (18 mm in diameter, and 150 mm in length).
# The "Recovery" was taken to be inversely proportional to the light at 450 nm generated in the assay. […] The loss of reactivity as a function of time was concluded that the loss was due to volatilization and not chemical decomposition of the compounds. Also the loss was so great that it was concluded that even if the solutions had been incubated as 2 ml aliquots in 3 ml closed vials, much more than 30 percent would have volatilized over a 14-day period.
# Additionally, preparations of anthracene (20 ppm), naphthalene (0.75 ppm), and 2,4-D (10 ppm), were tested for their immunoreactivity using the conditions of using the conditions described in Example 1.
# [3] = Stability (lack of volatilization) of 2 ml solution in stoppered 3 ml vial; assay type: physicochemical; conditions: 0.035, 0.10, 0.750 ppm; 2 ml in stoppered 3 ml vial; various temperatures; 60 days; FIGS. 2-4
# Protocol: Storage was effected by incubating the 2 ml of solution in a stoppered vial with a 3 ml capacity. The one ml of open "head space" in the vial […] to allow volatilization of the N-(3-methylbenzyl)-diglycolic acid, monoamide.
# At each concentration of the N-(3-methylbenzyl)-diglycolic acid, monoamide, the immunoassay was performed at various temperatures denoted in the Figure summarizing the results.
# anti-analyte antibody [4] = experiment: Cross-reactivity / immunoreactivity in competitive magnetic-particle enzyme immunoassay
# Protocol: as §1, §2, §3, §4, §5, §6, §7, §8, §9, §10, §11, §12, §13, §14, §15, §16, §17, §18, §19, §20, §21
# [5] = because of boiling point 279° C. (Merck Index); cited from earlier work
# [6] = Storage stability, 2.5 ml in 3.5 ml vials, antibody preparation reactive with anthracene and phenanthrene; assay type: physicochemical
# Protocol: Additional experiments were done using volumes of 2.5 ml in 3.5 ml vials and an antibody preparation reactive with anthracene and phenanthrene, the antibodies not made with the immunogen described herein and although much less suited for purposes of the present inventions than that made from the described immunogen, were adequate for obtaining the stability curves. (The results were considered to essentially reflect what would have occurred if the storage was done with 2 ml of solution in a 3 ml vial.) Anthracene was tested at concentrations of 1 ppb (upper set of curves in FIG. 6), 10 ppb (middle set of curves in FIG. 6) and 100 ppb (lower set of curves in FIG. 6) in TBS pH 7.0 at the specified temperatures in FIG. 6. Phenanthrene was tested at concentrations of 1 ppb (upper set of curves in FIG. 7), 10 ppb (middle set of curves in FIG. 7) and 100 ppb (lower set of curves in FIG. 7) in TBS at pH 7.0 at the specified temperatures in FIG. 7.
Structure (SMILES),IC50 (anti-analyte antibody [1]) [µg/mL],also measured
"Cc1ccc(C)c(C)c1 [1,2,4-trimethylbenzene]",1.15,
"Cc1cc(C)cc(C)c1 [1,3,5-tri-methylbenzene]",3.5,
"O=C(O)COc1ccc(Cl)cc1Cl [2,4-D]",,stability on storage [2]: more stable than m-xylene but less stable than anthracene
"Cc1cccc(CNC(=O)COCC(=O)O)c1 [N-(3-methylbenzyl)-diglycolic acid, monoamide]",,"stability (lack of volatilization) as a function of storage time [3]: essentially stable; equivalent Total BTEX concentration (anti-analyte antibody [4]; standard at 0.035 ppm): approximately 0.09 ppm; equivalent Total BTEX concentration (anti-analyte antibody [4]; standard at 0.035 ppm, monoamide): 0.09 ppm; equivalent Total BTEX concentration (anti-analyte antibody [4]; standard at 0.10 ppm): approximately 0.35 ppm; equivalent Total BTEX concentration (anti-analyte antibody [4]; standard at 0.10 ppm, monoamide): 0.35 ppm; equivalent Total BTEX concentration (anti-analyte antibody [4]; standard at 0.75 ppm): approximately 3.00 ppm; equivalent Total BTEX concentration (anti-analyte antibody [4]; standard at 0.75 ppm, monoamide): 3.00 ppm"
c1cc2c3c(cccc3c1)CC2 [acenaphthene],6.2,stability as regards volatilization [5]: stable as regards volatilization
c1ccc2cc3ccccc3cc2c1 [anthracene],28,"stability on storage ([6]; 1, 10, 100 ppb in TBS pH 7.0, 2.5 ml in 3.5 ml vials, FIGS. 6, 7): very stable (meets the 14-day test)"
c1ccccc1 [benzene],51,
C1CCCCC1 [cyclohexane],> 100,
CCc1ccccc1 [ethylbenzene],7.8,
Clc1c(Cl)c(Cl)c(Cl)c(Cl)c1Cl [hexachlorobenzene],> 100,
Cc1cccc(C)c1 [m-xylene],1.8,
ClCCl [methylene chloride],> 100,
CCCCCCCCCC [n-decane],> 100,
CCCCCCC [n-heptane],72,
CCCCCC [n-hexane],> 100,
CCCCCCCCC [n-nonane],> 100,
CCCCCCCC [n-octane],> 100,
CCCc1ccccc1 [n-propylbenzene],4.7,
c1ccc2ccccc2c1 [naphthalene],0.59,stability on storage [2]: not sufficiently stable
Cc1ccccc1C [o-xylene],4.7,
Cc1ccc(C)cc1 [p-xylene],3.1,
c1ccc2c(c1)ccc1ccccc12 [phenanthrene],1.6,stability on storage ([6]; pH 7): very stable (meets the 14-day test)
C=Cc1ccccc1 [styrene],2.6,
Cc1ccccc1 [toluene],7.4,
ClC=C(Cl)Cl [trichloroethylene],> 100,
